Measurements as given in US4146721A, “Pyrazol-4-acetic acid compounds” (priority 1970, dated 1979).
Read-outs that look alike come from different tables or passages of the source.

Assays:
in vivo = settings: mouse, ip
Procedure: (§2) ^3) Dose, at which 50% of the animals died within 72 hours after
administration of the substance

[1] = system: Carrageenin edema of the rear paw of the rat; assay: Carrageenin edema of the rear paw (antiphlogistic effect); assay type: in vivo; settings: for Retardation of the Carrageenin Edema, Relative Effect: Phenylbutazon = 1.0; for ED40: read-out: Retardation of the Carrageenin Edema by 40% by mg/kg oral
[2] = system: ultraviolet erythema of the skin on the back of the guinea pig; assay: Ultraviolet erythema of the skin on the back (antiphlogistic effect); assay type: in vivo; settings: for ED50: Cavia porcellus, read-out: Retardation of the UV-Erythema by 50% by mg/kg oral; for Retardation of the UV-Erythema, Relative Effect: Phenylbutazon = 1.0
rat = assay: Lowering of the normal temperature of the rat; assay type: in vivo; settings: for ED (15 degC temperature lowering): ip, read-out: dose i.p. that lowered the normal temperature of the rat by 15.° C.
Procedure: In addition thereto, the new pyrazole compounds of the invention effect a lowering of the temperature in mammalians: 60 mg/kg of compound A and 25 mg/kg of compound L, administered i.p. to the rat lowered the normal temperature of the rat by 15.° C.

mouse [3] = assay: Analgesic effect: delay in the defense reaction of the mouse upon thermal stimulation of the root of the tail by a heat beam; assay type: in vivo; settings: oral; for ED20 / ED40: Mus musculus; for ED20: mean delay in defense reaction by 20% during 2 hours; for ED40: mean delay in defense reaction by 40% during 2 hours; for ED20 Relative / ED40 Relative: relative to aminophenazone
Procedure: (§1) The analgesic effect is measured as the mean delay in the defense reaction of the mouse by 20% (ED20) and 40% (ED40) during 2 hours upon thermal stimulation of the root of the tail by a heat beam relative to aminophenazone.

[4] = as above; assay type: in vivo; settings: mouse, in vivo; LD5 I.P. / ED40 oral; read-out: Therapeutic Index LD5/ED40
Procedure: as §1

mouse [5] = settings: Table II; I.P.
Procedure: as §2
administration of the substance

[6] = cited from earlier work
[7] = rat, lowering by 15.° C. (so in the source)
[8] = Toxicity LD50 after a single dose in the mouse, Table I, i.p., 50% of the animals died within 72 hours
[9] = rat, oral, dose for 40% retardation
[10] = guinea pig, oral, dose for 50% retardation

| Structure (SMILES) | Retardation of the Carrageenin Edema, Relative Effect ([1]; rat, oral) | Retardation of the UV-Erythema, Relative Effect ([2]; guinea pig, oral) | ED20 (mouse [3]) | ED40 (mouse [3]) | selectivity ratio [4] | LD5 (mouse [5]) | ED20 Relative (mouse [3]) | ED40 Relative (mouse [3]) | LD50 at 72 h (in vivo; LD50, Table II, I.P.) | LD50 at 72 h (in vivo; [8]) | ED40 [1, 9] | ED50 [2, 10] | further results |
| --- | --- | --- | --- | --- | --- | --- | --- | --- | --- | --- | --- | --- | --- |
| O=C(O)Cc1c(-c2ccccc2)nn(-c2ccccc2)c1-c1ccccc1 [A, 1,3,5-triphenyl-pyrazol-4-acetic acid] | 6.0 | 5.3 |  |  |  |  |  |  |  |  |  |  | LD50 at 72 h (in vivo): 312 mg/kg; ED40 ([1]; Rattus norvegicus, po): 5 mg/kg; ED50 ([2]; po): 3 mg/kg; lowering of the normal temperature of the rat (rat; 60 mg/kg i.p.): 15. ° C.; ED (15 degC temperature lowering) (rat; Rattus norvegicus): 60 mg/kg |
| Cc1c(N(C)C)c(=O)n(-c2ccccc2)n1C [Aminophenazone, reference compound] |  |  | 50 mg/kg | 140 mg/kg | 1.9 | 270 mg/kg |  |  |  |  |  |  | LD50 at 72 h (in vivo): 330 mg/kg; ED (15 degC temperature lowering) (rat; [7]): 70 mg/kg |
| O=C(O)Cc1c(-c2ccco2)nn(-c2ccccc2)c1-c1ccco1 [B, 1-phenyl-3,5-di-(2-furyl)-pyrazol-4-acetic acid] | 3.0 | 10.7 | 10 mg/kg | 50 mg/kg | 3.8 | 190 mg/kg | 5.0 | 2.8 | 373 mg/kg | 370 mg/kg | 10 mg/kg | 1.5 mg/kg |  |
| O=C(O)Cc1c(-c2ccccc2)nn(-c2cccnc2)c1-c1ccccc1 [C, 3,5-diphenyl-1-(3-pyridyl)-pyrazol-4-acetic acid] | 1.5 | 6.4 |  |  |  |  |  |  |  | 1150 mg/kg | 20 mg/kg | 2.5 mg/kg |  |
| O=C(O)Cc1cn(-c2ccccc2)nc1-c1ccc(Cl)cc1 [D, 1-phenyl-3-(p-chlorophenyl)-pyrazol-4-acetic acid] |  |  |  |  |  |  |  |  |  |  | 2.5 mg/kg | 3 mg/kg |  |
| CCCCn1nc(C)c(CC(=O)O)c1C [E, 3,5-dimethyl-1-n-butyl-pyrazol-4-acetic acid] | 0.6 |  |  |  |  |  |  |  |  | 1400 mg/kg | 50 mg/kg |  |  |
| COc1ccc(-n2nc(C)c(CC(=O)O)c2C)cc1 [F, 3,5-dimethyl-1-(p-methoxyphenyl)-pyrazol-4-acetic acid] | 0.6 |  |  |  |  |  |  |  |  | 1000 mg/kg | 50 mg/kg |  |  |
| Cc1nn(-c2ccccc2)c(-c2ccccc2)c1CC(=O)O [G, 3-methyl-1,5-diphenyl-pyrazol-4-acetic acid] |  | 0.8 |  |  |  |  |  |  |  | 500 mg/kg |  | 20 mg/kg |  |
| CC(C(=O)O)c1c(-c2ccccc2)nn(-c2ccccc2)c1-c1ccccc1 (stereo not drawn) [H, α-methyl-1,3,5-triphenyl-pyrazol-4-acetic acid] | 1.0 | 3.2 |  |  |  |  |  |  |  | 199 mg/kg | 30 mg/kg | 5 mg/kg |  |
| O=C(O)Cc1cnn(-c2ccccc2)c1-c1ccc(Cl)cc1 [I, 1-phenyl-5-(p-chlorophenyl)-pyrazol-4-acetic acid] |  |  | 50 mg/kg | 70 mg/kg | 2.6 | 180 mg/kg | 1.0 | 2.0 | 279 mg/kg |  |  |  |  |
| COc1ccc2c(c1)c(CC(=O)O)c(C)n2C(=O)c1ccc(Cl)cc1 [Indomethacin, 2-methyl-5-methoxy-1-(p-chlorobenzoyl)-indol-3-acetic acid, reference compound] | 7.5 | 0.8 |  |  |  |  |  |  |  |  |  |  | side effects ([6]; Chem. Eng. News 46 (1968)): many undesirable side effects; antiphlogistic, analgesic and antipyretic effectiveness compared with 4-n-butyl-1,2-diphenyl-3,5-dioxopyracoline ([6]; J. Am. Chem. So. 85, 488 (1963)): surpassing in this respect the effectiveness; LD50 at 72 h (in vivo): 45 mg/kg; ED40 ([1]; Rattus norvegicus, po): 4 mg/kg; ED50 ([2]; po): 20 mg/kg |
| CCCCn1nc(-c2ccccc2)c(CC(=O)O)c1-c1ccccc1 [K, 1-n-butyl-3,5-diphenyl-pyrazol-4-acetic acid] |  |  | 20 mg/kg | 80 mg/kg | 4.5 | 360 mg/kg | 2.5 | 1.8 | 430 mg/kg |  |  |  |  |
| O=C(O)Cc1c(-c2ccccc2)nn(-c2ccc(Cl)cc2)c1-c1ccccc1 [L, 3,5-diphenyl-1-(p-chlorophenyl)-pyrazol-4-acetic acid] |  |  | 15 mg/kg | 55 mg/kg |  |  | 3.3 | 2.5 | ~80 mg/kg |  |  |  | lowering of the normal temperature of the rat (rat; 25 mg/kg i.p.): 1.5 ° C; ED (15 degC temperature lowering) (rat; [7]): 25 mg/kg |
| O=C(O)Cc1c(-c2ccc(Cl)cc2)nn(-c2ccccc2)c1-c1ccc(Cl)cc1 [M, 1-phenyl-3,5-bis-(p-chlorophenyl)-pyrazol-4-acetic acid] |  |  | 7 mg/kg | 20 mg/kg | 1.9 | 38 mg/kg | 7.1 | 7.0 | 51 mg/kg |  |  |  |  |
| COc1cccc(-c2nn(-c3ccccc3)c(-c3cccc(OC)c3)c2CC(=O)O)c1 [N, 1-phenyl-3,5-bis-(m-methoxyphenyl)-pyrazol-4-acetic acid] |  |  | 30 mg/kg | 55 mg/kg | 3.6 | 200 mg/kg | 1.7 | 2.5 | 312 mg/kg |  |  |  |  |
| CCOC(=O)Cc1c(-c2ccccc2)nn(-c2cccc(C(F)(F)F)c2)c1-c1ccccc1 [O, 3,5-diphenyl-1-(α,α,α-trifluoro-m-tolyl)-pyrazol-4-acetic acid-ethyl ester] |  |  | 50 mg/kg | 70 mg/kg |  |  | 1.0 | 2.0 |  |  |  |  |  |
| Cc1nn(-c2ccccc2)c(C)c1CC(N)=O [P, 3,5-dimethyl-1-phenyl-pyrazol-4-acetamide] |  |  | 50 mg/kg | 150 mg/kg | 3.3 | 500 mg/kg | 1.0 | 0.9 | 500 mg/kg |  |  |  |  |
| CCCCC1C(=O)N(c2ccccc2)N(c2ccccc2)C1=O [Phenylbutazon, reference compound] |  |  | 150 mg/kg |  |  |  |  |  |  |  | 30 mg/kg | 16 mg/kg |  |
| Cc1nn(-c2ccccc2)c(C)c1CC#N [Q, 3,5-dimethyl-1-phenyl-pyrazol-4-acetonitrile] |  |  | 20 mg/kg | 40 mg/kg |  |  | 2.5 | 3.5 |  |  |  |  |  |
| COc1ccc(-c2nn(-c3ccccc3)cc2CC#N)cc1 [R, 1-phenyl-3-(p-methoxyphenyl)-pyrazol-4-acetonitrile] |  |  | 50 mg/kg | 80 mg/kg |  |  | 1.0 | 1.8 |  |  |  |  |  |
